PubChem BioAssay AID248 (DTP/NCI, 2004)
Values joined by “and” are separate entries in the source; they are usually repeats but may differ in a detail not shown here. Identical values can stand only once. Toxic doses and inconclusive results are not listed. Numbered stars: 1 amine (or outer) side, 2 acyl side, 3 side chain; on linkers, the order of the positions; unused ones are H or OH. Bridge positions count the residues as written; N and C are the ends. Square brackets hold non-standard residues; d marks the D form. Peptide text beside a SMILES is read from it. I, II: the chains in the order shown. Actinocin(1to9) = Cc1c2oc3c(C)ccc(C(=O)[*:2])c3nc-2c(C(=O)[*:1])c(N)c1=O; NMeV = CN[CH](C(=O)O)C(C)C; Sar = CNCC(=O)O

Test system: L1210 leukemia ip in BDF1 mice, survival T/C
Experiment: NCI In Vivo Anticancer Drug Screen. Data for tumor model L1210 Leukemia (intraperitoneal) in B6D2F1 (BDF1) mice
Conditions: higher = longer survival
Method in brief: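 Transplanted-tumor mice were given test agent; controls received vehicle only. Survival readings from the two groups were divided (treated over control).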

[1] = endpoint: mean survival time, dose: 100.0 mg/kg/injection, schedule: Q04DX003 (ip), vehicle: saline with Tween-80
[2] = endpoint: mean survival time, dose: 200.0 mg/kg/injection, schedule: Q04DX003 (ip), vehicle: saline with Tween-80
[3] = endpoint: mean survival time, dose: 400.0 mg/kg/injection, schedule: Q04DX003 (ip), vehicle: saline with Tween-80
[4] = endpoint: mean survival time, dose: 50.0 mg/kg/injection, schedule: Q01DX001 (ip), vehicle: saline
[5] = endpoint: mean survival time, dose: 100.0 mg/kg/injection, schedule: Q01DX001 (ip), vehicle: saline
[6] = endpoint: mean survival time, dose: 200.0 mg/kg/injection, schedule: Q01DX001 (ip), vehicle: saline
[7] = endpoint: mean survival time, dose: 400.0 mg/kg/injection, schedule: Q01DX001 (ip), vehicle: saline
[8] = endpoint: mean survival time, dose: 100.0 mg/kg/injection, schedule: Q01DX009 (ip), vehicle: saline with Tween-80
[9] = endpoint: mean survival time, dose: 200.0 mg/kg/injection, schedule: Q01DX009 (ip), vehicle: saline with Tween-80
[10] = endpoint: mean survival time, dose: 400.0 mg/kg/injection, schedule: Q01DX009 (ip), vehicle: saline with Tween-80

## C/C(=N\N=C(/C)c1cccc([N+](=O)[O-])c1)c1cccc([N+](=O)[O-])c1
endpoint: mean survival time, dose: 100.0 mg/kg/injection, schedule: Q01DX001 (ip), vehicle: other
  T/C: 100 % of control
endpoint: mean survival time, dose: 200.0 mg/kg/injection, schedule: Q01DX001 (ip), vehicle: other
  T/C: 100 % of control
endpoint: mean survival time, dose: 400.0 mg/kg/injection, schedule: Q01DX001 (ip), vehicle: other
  T/C: 97 % of control

## Cc1ccc(-c2oc(-c3ccc(C)cc3)c3cc(C)c(C)cc23)cc1
endpoint: mean survival time, dose: 100.0 mg/kg/injection, schedule: Q01DX001 (ip), vehicle: Klucel (hydroxypropylcellulose) (HPC)
  T/C: 87 % of control
endpoint: mean survival time, dose: 200.0 mg/kg/injection, schedule: Q01DX001 (ip), vehicle: Klucel (hydroxypropylcellulose) (HPC)
  T/C: 90 % of control
endpoint: mean survival time, dose: 400.0 mg/kg/injection, schedule: Q01DX001 (ip), vehicle: Klucel (hydroxypropylcellulose) (HPC)
  T/C: 88 % of control

## NC(=O)N/N=C1\CC2C=CCC12 (stereo not given)
[1]
  T/C: 94 % of control
[2]
  T/C: 92 % of control
[3]
  T/C: 108 % of control

## COc1[nH]c(=O)ncc1Br
[4]
  T/C: 105 % of control
[5]
  T/C: 103 % of control
[6]
  T/C: 109 % of control
[7]
  T/C: 103 % of control

## S=c1nc[nH]c2c1ncn2C1CCCO1 (stereo not given)
endpoint: mean survival time, dose: 75.0 mg/kg/injection, schedule: Q01DX Z (ip), vehicle: methylcellulose (MC)
  T/C: 159 % of control

## CN(CC(O)CN)c1ccccc1 (stereo not given)
[5]
  T/C: 102 % of control
[6]
  T/C: 94 % of control

## CC(C)(C)OC(=O)NOc1ccc([N+](=O)[O-])cc1[N+](=O)[O-]
endpoint: mean survival time, dose: 2.0 mg/kg/injection, schedule: Q01DX009 (ip), vehicle: saline with Tween-80
  T/C: 95 % of control
endpoint: mean survival time, dose: 4.0 mg/kg/injection, schedule: Q01DX009 (ip), vehicle: saline with Tween-80
  T/C: 106 % of control
endpoint: mean survival time, dose: 8.0 mg/kg/injection, schedule: Q01DX009 (ip), vehicle: saline with Tween-80
  T/C: 107 % of control
endpoint: mean survival time, dose: 16.0 mg/kg/injection, schedule: Q01DX009 (ip), vehicle: saline with Tween-80
  T/C: 101 % of control
endpoint: mean survival time, dose: 25.0 mg/kg/injection, schedule: Q04DX003 (ip), vehicle: saline with Tween-80
  T/C: 105 % of control
endpoint: mean survival time, dose: 50.0 mg/kg/injection, schedule: Q04DX003 (ip), vehicle: saline with Tween-80
  T/C: 92 % of control
endpoint: mean survival time, dose: 75.0 mg/kg/injection, schedule: Q01DX001 (ip), vehicle: carboxymethylcellulose (CMC)
  T/C: 96 % of control
[1]
  T/C: 88 % of control

## F[Si](c1ccccc1)(c1ccccc1)c1cccc2ccccc12
endpoint: mean survival time, dose: 100.0 mg/kg/injection, schedule: Q01DX001 (ip), vehicle: saline with Tween-80
  T/C: 96 % of control
[8]
  T/C: 98 % of control
endpoint: mean survival time, dose: 200.0 mg/kg/injection, schedule: Q01DX001 (ip), vehicle: saline with Tween-80
  T/C: 102 % of control
[9]
  T/C: 92 % of control
endpoint: mean survival time, dose: 400.0 mg/kg/injection, schedule: Q01DX001 (ip), vehicle: saline with Tween-80
  T/C: 94 % of control
[10]
  T/C: 93 % of control

## CC(=O)Oc1ccc(C2C3=C(COC3=O)CC3=C2C(=O)OC3)cc1
[8]
  T/C: 104 % of control
[1]
  T/C: 96 % of control
[9]
  T/C: 100 % of control
[2]
  T/C: 97 % of control
[10]
  T/C: 96 % of control
[3]
  T/C: 96 % of control

## Cc1cc2nc3[nH]c4ccccc4c3nc2cc1C
endpoint: mean survival time, dose: 12.5 mg/kg/injection, schedule: Q01DX015 (ip), vehicle: saline
  T/C: 98 % of control
endpoint: mean survival time, dose: 25.0 mg/kg/injection, schedule: Q01DX015 (ip), vehicle: saline
  T/C: 87 % of control
[4]
  T/C: 91 % of control
endpoint: mean survival time, dose: 50.0 mg/kg/injection, schedule: Q01DX015 (ip), vehicle: saline
  T/C: 115 % of control
[5]
  T/C: 94 % of control
endpoint: mean survival time, dose: 100.0 mg/kg/injection, schedule: Q01DX015 (ip), vehicle: saline
  T/C: 120 % of control
[6]
  T/C: 91 % of control
endpoint: mean survival time, dose: 200.0 mg/kg/injection, schedule: Q01DX015 (ip), vehicle: saline
  T/C: 108 % of control and 90 % of control
[7]
  T/C: 97 % of control
endpoint: mean survival time, dose: 400.0 mg/kg/injection, schedule: Q01DX015 (ip), vehicle: saline
  T/C: 104 % of control
endpoint: mean survival time, dose: 800.0 mg/kg/injection, schedule: Q01DX001 (ip), vehicle: saline
  T/C: 103 % of control
endpoint: mean survival time, dose: 800.0 mg/kg/injection, schedule: Q01DX015 (ip), vehicle: saline
  T/C: 87 % of control

## CCOC(=O)c1ccc2c(c1)C(=O)c1cc([N+](=O)[O-])ccc1-2
endpoint: mean survival time, dose: 100.0 mg/kg/injection, schedule: Q01DX001 (ip), vehicle: carboxymethylcellulose (CMC)
  T/C: 96 % of control
endpoint: mean survival time, dose: 200.0 mg/kg/injection, schedule: Q01DX001 (ip), vehicle: carboxymethylcellulose (CMC)
  T/C: 96 % of control
endpoint: mean survival time, dose: 400.0 mg/kg/injection, schedule: Q01DX001 (ip), vehicle: carboxymethylcellulose (CMC)
  T/C: 96 % of control

## CC1(C)CC(=O)C=C(OS(=O)(=O)C(F)(F)F)C1
endpoint: mean survival time, dose: 12.5 mg/kg/injection, schedule: Q01DX009 (ip), vehicle: DMSO
  T/C: 110 % of control
endpoint: mean survival time, dose: 25.0 mg/kg/injection, schedule: Q01DX009 (ip), vehicle: DMSO
  T/C: 101 % of control
endpoint: mean survival time, dose: 50.0 mg/kg/injection, schedule: Q01DX009 (ip), vehicle: DMSO
  T/C: 103 % of control
endpoint: mean survival time, dose: 100.0 mg/kg/injection, schedule: Q01DX009 (ip), vehicle: DMSO
  T/C: 94 % of control

## CCC(C)c1cccc(OP(=O)(CC(C)CC(C)(C)C)Oc2ccccc2C(C)CC)c1 (stereo not given)
endpoint: mean survival time, dose: 50.0 mg/kg/injection, schedule: Q01DX001 (ip), vehicle: acetone
  T/C: 94 % of control
endpoint: mean survival time, dose: 100.0 mg/kg/injection, schedule: Q01DX001 (ip), vehicle: acetone
  T/C: 94 % of control
endpoint: mean survival time, dose: 200.0 mg/kg/injection, schedule: Q01DX001 (ip), vehicle: acetone
  T/C: 93 % of control

## CCC(C)C1NC(=O)C(NC(=O)c2c3nc4c(C(=O)NC5C(=O)NC(C(C)CC)C(=O)N6CCCC6C(=O)N(C)CC(=O)N(C)C(C(C)C)C(=O)OC5C)ccc(C)c4oc-3c(C)c(=O)c2N)C(C)OC(=O)C(C(C)C)N(C)C(=O)CN(C)C(=O)C2CCCN2C1=O (stereo not given) (I: TIP[Sar][NMeV] / II: TIP[Sar][NMeV]; ester I:1-I:C, II:1-II:C; linker I:N-II:N via Actinocin(1to9); configuration not given here)
endpoint: mean survival time, dose: 0.1 mg/kg/injection, schedule: Q01DX009 (ip), vehicle: saline
  T/C: 170 % of control
endpoint: mean survival time, dose: 0.4 mg/kg/injection, schedule: Q01DX009 (ip), vehicle: saline
  T/C: 86 % of control
endpoint: mean survival time, dose: 2.5 micrograms/kg/injection, schedule: Q01DX009 (ip), vehicle: saline
  T/C: 115 % of control
endpoint: mean survival time, dose: 3.1 micrograms/kg/injection, schedule: Q01DX001 (ip), vehicle: saline
  T/C: 106 % of control
endpoint: mean survival time, dose: 6.0 micrograms/kg/injection, schedule: Q01DX009 (ip), vehicle: saline
  T/C: 122 % of control
endpoint: mean survival time, dose: 6.3 micrograms/kg/injection, schedule: Q01DX001 (ip), vehicle: saline
  T/C: 102 % of control
endpoint: mean survival time, dose: 10.0 micrograms/kg/injection, schedule: Q01DX009 (ip), vehicle: saline
  T/C: 118 % of control
endpoint: mean survival time, dose: 12.5 micrograms/kg/injection, schedule: Q01DX001 (ip), vehicle: saline
  T/C: 102 % of control
endpoint: mean survival time, dose: 12.5 micrograms/kg/injection, schedule: Q01DX009 (ip), vehicle: saline
  T/C: 122 % of control
endpoint: mean survival time, dose: 25.0 micrograms/kg/injection, schedule: Q01DX001 (ip), vehicle: saline
  T/C: 114 % of control
endpoint: mean survival time, dose: 50.0 micrograms/kg/injection, schedule: Q01DX001 (ip), vehicle: saline
  T/C: 102 % of control
endpoint: mean survival time, dose: 50.0 micrograms/kg/injection, schedule: Q01DX009 (ip), vehicle: saline
  T/C: 150 % of control
endpoint: mean survival time, dose: 59.4 micrograms/kg/injection, schedule: Q01DX009 (ip), vehicle: acetone
  T/C: 160 % of control
endpoint: mean survival time, dose: 90.0 micrograms/kg/injection, schedule: Q01DX009 (ip), vehicle: acetone
  T/C: 102 % of control
endpoint: mean survival time, dose: 100.0 micrograms/kg/injection, schedule: Q01DX001 (ip), vehicle: saline
  T/C: 111 % of control
endpoint: mean survival time, dose: 135.0 micrograms/kg/injection, schedule: Q01DX009 (ip), vehicle: acetone
  T/C: 104 % of control
endpoint: mean survival time, dose: 200.0 micrograms/kg/injection, schedule: Q01DX001 (ip), vehicle: saline
  T/C: 117 % of control
endpoint: median survival time, dose: 12.5 micrograms/kg/injection, schedule: Q01DX009 (ip), vehicle: water
  T/C: 113 % of control
endpoint: median survival time, dose: 25.0 micrograms/kg/injection, schedule: Q01DX009 (ip), vehicle: water
  T/C: 117 % of control
endpoint: median survival time, dose: 75.0 micrograms/kg/injection, schedule: Q04DX003 (ip), vehicle: water
  T/C: 122 % of control
endpoint: median survival time, dose: 200.0 micrograms/kg/injection, schedule: Q01DX001 (ip), vehicle: water
  T/C: 118 % of control
endpoint: median survival time, dose: 600.0 micrograms/kg/injection, schedule: Q04DX003 (ip), vehicle: water
  T/C: 150 % of control
